For this assay, the target named is T1, Human TRPC6 (Homo sapiens, UniProt Q9Y210).
T1 construct: expressed in transfected cells
T1 sequence (Q9Y210 1-931): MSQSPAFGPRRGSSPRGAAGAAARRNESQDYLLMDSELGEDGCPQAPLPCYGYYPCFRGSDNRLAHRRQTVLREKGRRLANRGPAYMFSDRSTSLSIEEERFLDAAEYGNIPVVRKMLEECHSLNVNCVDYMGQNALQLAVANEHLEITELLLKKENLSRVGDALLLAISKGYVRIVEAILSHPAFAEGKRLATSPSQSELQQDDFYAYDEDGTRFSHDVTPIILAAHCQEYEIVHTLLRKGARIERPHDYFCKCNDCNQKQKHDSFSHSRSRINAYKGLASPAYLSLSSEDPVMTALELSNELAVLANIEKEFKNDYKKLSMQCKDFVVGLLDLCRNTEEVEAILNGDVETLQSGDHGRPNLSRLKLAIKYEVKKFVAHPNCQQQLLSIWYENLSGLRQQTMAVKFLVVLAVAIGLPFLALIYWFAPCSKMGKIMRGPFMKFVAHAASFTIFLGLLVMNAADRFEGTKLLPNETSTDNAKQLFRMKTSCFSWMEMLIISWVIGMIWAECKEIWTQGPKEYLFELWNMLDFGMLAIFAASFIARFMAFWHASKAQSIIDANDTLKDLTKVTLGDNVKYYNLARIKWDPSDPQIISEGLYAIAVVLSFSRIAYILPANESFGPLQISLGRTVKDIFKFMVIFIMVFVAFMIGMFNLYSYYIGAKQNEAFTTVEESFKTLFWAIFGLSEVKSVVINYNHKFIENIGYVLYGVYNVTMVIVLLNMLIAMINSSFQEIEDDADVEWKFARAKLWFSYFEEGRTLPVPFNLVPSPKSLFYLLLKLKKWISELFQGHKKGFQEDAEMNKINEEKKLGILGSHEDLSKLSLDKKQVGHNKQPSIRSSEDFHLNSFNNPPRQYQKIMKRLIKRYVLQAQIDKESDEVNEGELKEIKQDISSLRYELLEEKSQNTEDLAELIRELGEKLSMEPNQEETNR
Put plainly: Evaluation of TRPC6 channel inhibitory activity (1), FLIPR Calcium 5 Assay Kit, OAG stimulation (Compound Nos. 1-1293). To be noted: Human TRPC6 stably-expressing cells, OAG 30 μM, FLIPR Calcium 5 Assay Kit; read-out: Inhibitory activity (pIC50 class) (converted). The class given is cell-based. The method in brief: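 Cells stably expressing human TRPC6, plated 24 h before, were loaded 30 min with Calcium 5 dye plus probenecid in HEPES-HBSS. Compound was added 20 min before OAG (30 μM final) and fluorescence tracked on FLIPR. Inhibition normalised to no-compound and no-compound/no-OAG wells; pIC50 from four-parameter fit, reported as +/++/+++ categories.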

For `Cn1nc(C2CC2)cc1Oc1cc(C#N)ccc1-c1cc(C(O)CN)c(Cl)cn1` (stereo not drawn) [compound 518, 4-[4-(2-amino-1-hydroxyethyl)-5-chloropyridin-2-yl]-3-(5-cyclopropyl-2-methylpyrazol-3-yl)oxybenzonitrile], the IC50 is 10 to 1000 nM.
`Cn1nc(C2CC2)cc1Oc1cc(C#N)ccc1-c1cc(C(O)CN)ccn1` (stereo not drawn) [compound 519, 4-[4-(2-amino-1-hydroxyethyl)pyridin-2-yl]-3-(5-cyclopropyl-2-methylpyrazol-3-yl)oxybenzonitrile]: the IC50 is 10 to 1000 nM.
The same measure for `Cn1nc(C2CC2)cc1Oc1cc(C#N)ccc1-c1ncc(CN)s1` [compound 520, 4-[5-(aminomethyl)-1,3-thiazol-2-yl]-3-(5-cyclopropyl-2-methylpyrazol-3-yl)oxybenzonitrile]: 10 to 1000 nM; for `Cn1nc(-c2ccccn2)cc1Oc1cc(C#N)ccc1-c1ncc(CN)s1` [compound 521, 4-[5-(aminomethyl)-1,3-thiazol-2-yl]-3-(2-methyl-5-pyridin-2-ylpyrazol-3-yl)oxybenzonitrile]: less than 10 nM; for `Cn1nc(-c2ccccn2)cc1Oc1cc(C#N)ccc1-c1ccc(CN)n2ccnc12` [compound 522, 4-[5-(aminomethyl)imidazo[1,2-a]pyridin-8-yl]-3-(2-methyl-5-pyridin-2-ylpyrazol-3-yl)oxybenzonitrile]: less than 10 nM.
The same measure for `Cc1nc(Oc2cc(C#N)ccc2-c2ccc([C@H](O)CN)cn2)cc(N2C[C@@H](C)O[C@@H](C)C2)n1` [compound 523, 4-[5-[(1S)-2-amino-1-hydroxyethyl]pyridin-2-yl]-3-[6-[(2S,6R)-2,6-dimethylmorpholin-4-yl]-2-methylpyrimidin-4-yl]oxybenzonitrile]: 10 to 1000 nM; for `Cc1nc(Oc2cc(C#N)ccc2-c2ncc([C@H](O)CN)cn2)cc(N2C[C@@H](C)O[C@@H](C)C2)n1` [compound 524, 4-[5-[(1S)-2-amino-1-hydroxyethyl]pyrimidin-2-yl]-3-[6-[(2S,6R)-2,6-dimethylmorpholin-4-yl]-2-methylpyrimidin-4-yl]oxybenzonitrile]: 10 to 1000 nM; for `Cc1nc(Oc2cc(C#N)ccc2-c2ccc([C@H](O)CN)cn2)cc(-c2ccccc2)n1` [compound 525, 4-[5-[(1S)-2-amino-1-hydroxyethyl]pyridin-2-yl]-3-(2-methyl-6-phenylpyrimidin-4-yl)oxybenzonitrile]: less than 10 nM.
The same measure for `Cc1nc(Oc2cc(C#N)ccc2-c2ncc([C@H](O)CN)cn2)cc(-c2ccccc2)n1` [compound 526, 4-[5-[(1S)-2-amino-1-hydroxyethyl]pyrimidin-2-yl]-3-(2-methyl-6-phenylpyrimidin-4-yl)oxybenzonitrile]: less than 10 nM.
On to `Cc1cc(Oc2cc(C#N)ccc2-c2ccc([C@H](O)CN)cn2)cc(N2C[C@@H]3C[C@H]2CO3)n1` [compound 527, 4-[5-[(1S)-2-amino-1-hydroxyethyl]pyridin-2-yl]-3-[2-methyl-6-[(1S,4S)-2-oxa-5-azabicyclo[2.2.1]heptan-5-yl]pyridin-4-yl]oxybenzonitrile], for which the IC50 is less than 10 nM.
For `Cc1cc(Oc2cc(C#N)ccc2-c2ncc([C@H](O)CN)cn2)cc(N2C[C@@H]3C[C@H]2CO3)n1` [compound 528, 4-[5-[(1S)-2-amino-1-hydroxyethyl]pyrimidin-2-yl]-3-[2-methyl-6-[(1S,4S)-2-oxa-5-azabicyclo[2.2.1]heptan-5-yl]pyridin-4-yl]oxybenzonitrile], the IC50 was 10 to 1000 nM.
As for `Cc1cc(Oc2cc(C#N)ccc2-c2ccc([C@H](O)CN)cn2)cc(N2CCO[C@@H](C)C2)n1` [compound 529, 4-[5-[(1S)-2-amino-1-hydroxyethyl]pyridin-2-yl]-3-[2-methyl-6-[(2S)-2-methylmorpholin-4-yl]pyridin-4-yl]oxybenzonitrile], the figure is less than 10 nM.
The same measure for `Cc1cc(Oc2cc(C#N)ccc2-c2ncc([C@H](O)CN)cn2)cc(N2CCO[C@@H](C)C2)n1` [compound 530, 4-[5-[(1S)-2-amino-1-hydroxyethyl]pyrimidin-2-yl]-3-[2-methyl-6-[(2S)-2-methylmorpholin-4-yl]pyridin-4-yl]oxybenzonitrile]: less than 10 nM; for `Cc1cc(Oc2cc(C#N)ccc2-c2ccc([C@H](O)CN)cn2)cc(N2CCOC(C)(C)C2)n1` [compound 531, 4-[5-[(1S)-2-amino-1-hydroxyethyl]pyridin-2-yl]-3-[2-(2,2-dimethylmorpholin-4-yl)-6-methylpyridin-4-yl]oxybenzonitrile]: less than 10 nM; for `Cc1cc(Oc2cc(C#N)ccc2-c2ncc([C@H](O)CN)cn2)cc(N2CCOC(C)(C)C2)n1` [compound 532, 4-[5-[(1S)-2-amino-1-hydroxyethyl]pyrimidin-2-yl]-3-[2-(2,2-dimethylmorpholin-4-yl)-6-methylpyridin-4-yl]oxybenzonitrile]: less than 10 nM.
As for `N#Cc1ccc(-c2ncc(CN)cn2)c(Oc2cnnc(N3CCOCC3)c2)c1` [compound 534, 4-[5-(aminomethyl)pyrimidin-2-yl]-3-(6-morpholin-4-ylpyridazin-4-yl)oxybenzonitrile], the figure is 10 to 1000 nM.
As to `N#Cc1ccc(-c2ncc(CN)cn2)c(Oc2cc(N3CCOCC3)cnn2)c1` [compound 535, 4-[5-(aminomethyl)pyrimidin-2-yl]-3-(5-morpholin-4-ylpyridazin-3-yl)oxybenzonitrile], the IC50 was greater than 1000 nM.
The same measure for `Cn1nc(-c2nccs2)cc1Oc1cc(C#N)ccc1-c1ccc([C@H](O)CN)cn1` [compound 536, 4-[5-[(1S)-2-amino-1-hydroxyethyl]pyridin-2-yl]-3-[2-methyl-5-(1,3-thiazol-2-yl)pyrazol-3-yl]oxybenzonitrile]: less than 10 nM.
As for `Cc1cc(Oc2cc(C#N)ccc2-c2ccc(C3(O)CNC3)cn2)cc(N2CCOCC2)n1` [compound 537, 4-[5-(3-hydroxyazetidin-3-yl)pyridin-2-yl]-3-(2-methyl-6-morpholin-4-ylpyridin-4-yl)oxybenzonitrile], the IC50 is greater than 1000 nM.
The same measure for `Cc1cc(Oc2cc(C#N)ccc2-c2ccc(C3(F)CNC3)cn2)cc(N2CCOCC2)n1` [compound 538, 4-[5-(3-fluoroazetidin-3-yl)pyridin-2-yl]-3-(2-methyl-6-morpholin-4-ylpyridin-4-yl)oxybenzonitrile]: 10 to 1000 nM; for `Cc1cc(Oc2cc(C#N)ccc2-c2ccc(C3OCCCC3N)cn2)cc(N2CCOCC2)n1` (stereo not drawn) [compound 539, 4-[5-(3-aminooxan-2-yl)pyridin-2-yl]-3-(2-methyl-6-morpholin-4-ylpyridin-4-yl)oxybenzonitrile]: 10 to 1000 nM.
In the case of `Cn1nc(-c2ncccn2)cc1Oc1cc(C#N)ccc1-c1ccc([C@H](O)CN)cn1` [compound 540, 4-[5-[(1S)-2-amino-1-hydroxyethyl]pyridin-2-yl]-3-(2-methyl-5-pyrimidin-2-ylpyrazol-3-yl)oxybenzonitrile], the IC50 was greater than 1000 nM.
As for `Cn1nc(N2CCCCC2)cc1Oc1cc(C#N)ccc1-c1ccc(CCN)cn1` [compound 541, 4-[5-(2-aminoethyl)pyridin-2-yl]-3-(2-methyl-5-piperidin-1-ylpyrazol-3-yl)oxybenzonitrile], the IC50 is less than 10 nM.
As for `Cn1nc(N2CCCC2)cc1Oc1cc(C#N)ccc1-c1ccc(CCN)cn1` [compound 542, 4-[5-(2-aminoethyl)pyridin-2-yl]-3-(2-methyl-5-pyrrolidin-1-ylpyrazol-3-yl)oxybenzonitrile], the figure is less than 10 nM.
Regarding `CN(C)c1cc(Oc2cc(C#N)ccc2-c2ccc(CCN)cn2)n(C)n1` [compound 543, 4-[5-(2-aminoethyl)pyridin-2-yl]-3-[5-(dimethylamino)-2-methylpyrazol-3-yl]oxybenzonitrile], the IC50 is less than 10 nM.
As for `Cn1nc(N2CCCCC2)cc1Oc1cc(C#N)ccc1-c1ccc([C@H](O)CN)cn1` [compound 544, 4-[5-[(1S)-2-amino-1-hydroxyethyl]pyridin-2-yl]-3-(2-methyl-5-pipeddin-1-ylpyrazol-3-yl)oxybenzonitrile], the figure is less than 10 nM; as for `Cn1nc(N2CCCC2)cc1Oc1cc(C#N)ccc1-c1ccc([C@H](O)CN)cn1` [compound 545, 4-[5-[(1S)-2-amino-1-hydroxyethyl]pyridin-2-yl]-3-(2-methyl-5-pyrrolidin-1-ylpyrazol-3-yl)oxybenzonitrile], 10 to 1000 nM.
